Measured values from patent US8937063B2 (Trustees of Tufts College, priority 2010, dated 2015).

Tested on: high fat+fructose (HF/HS) diet hamsters
Assay: FPLC cholesterol subpopulation traces of pooled hamster plasma
Type: in vivo, male Golden Syrian hamsters
Settings: ARI-001 2240 mg/kg 18 days, vs vehicle
Description: Fast protein liquid chromatography (FPLC) was used to separate the different cholesterol subpopulations from samples of hamster plasma. Briefly, plasma from each animal within a given cohort was pooled together and applied to an AKTA liquid handling system with a Superose 6 10/300 GL column (product #14-5172-01, GE Life Sciences). 250 μL of sample was applied to the injection system, diluted with 5 mL of buffer (100 mM Na2HPO4, 100 mM NaCl, pH 7.5), loaded onto the column, and eluted with 23.5 mL of buffer at a flow rate of 1.0 mL/min, into fractions of size 0.24 mL. Each fraction was individually measured for cholesterol concentration using the total cholesterol kit from Wako as described above with the following modification: sample volume was increased to 30 μL and the reagent volume was decreased to 60 μL.
FPLC traces produce continuous curves with three distinct peaks, representing each of the cholesterol subpopultions: VLDL, LDL, and HDL. Because the column used in this experiment is a size-exclusion column, the largest particles appear first, while the smallest appear last. […]
The measured HDL values were borderline significant (p=0.06) between the 2240 mg/kg ARI-001 group and vehicle. There was a considerable increase in significance when considering the calculated HDL/TC values. […]

O=C(O)c1ccc(CCN2CCOCC2)nc1 [ARI-001]
FPLC HDL curve: notably larger | FPLC VLDL and LDL peaks: considerably decreased compared to vehicle
